According to US20250170114A1, “METHODS OF TREATMENT USING T-TYPE CALCIUM CHANNEL MODULATORS” (Praxis Precision Medicines, Inc., priority 2022, published 2025):

Legend:
[1] = test system: participants with ET; assay: Phase 2 trial Part B: Beck Anxiety Inventory (BAI); assay type: in vivo, human
Description: The Beck Anxiety Index (BAI) is a brief measure of anxiety with a specific attention on somatic symptoms of anxiety that was developed as a measure aimed at discriminating between anxiety and depression (Beck et al 1988). The BAI contains 21 questions about the common symptoms of anxiety that the subject could have experienced during the past week (including the day the BAI is administered). The common symptoms of anxiety include numbness and tingling, sweating not due to heat, and fear of the worst happening. It is designed for individuals who are of 17 years of age or older and takes 5 to 10 minutes to complete. Each answer is scored on a scale value of 0 (not at all) to 3 (severely). Higher total scores indicate more severe anxiety symptoms. The standardized cutoffs are the following: 0-7: minimal, 8-15: mild, 16-25: moderate, 26-63: severe.
(§1) In both phases, key safety measures included clinical laboratory evaluations, 12-lead ECG, C-SSRS, and vital signs. Key efficacy assessments included the TETRAS Performance subscale, TETRAS Upper Limb using accelerometry, CGI, PGI-C, TETRAS ADL Subscale, QUEST, BDI-II, and BAI. Blood samples were obtained for the determination of study drug and metabolite plasma concentrations.

[2] = test system: participants with ET; assay: Phase 2 trial Part B: Quality of Life in Essential Tremor Questionnaire (QUEST); assay type: in vivo, human; details: pre-dose baseline to Day 56, participants receiving study drug
From the text: as §1

[3] = test system: harmaline-induced decrease in travelling distance in male SD rats; assay: Open field test with harmaline in SD rats; assay type: in vivo, rat; details: harmaline 30 mg/kg, dose of 3 and 10 mg/kg
Description: (§2) Each of six groups of male SD rats were subjected to a tremor assessment, followed by three ADL-like measures including open field test, rotarod test, and wire grip test after receiving doses of either vehicle, Formula (I), or propranolol, followed by either saline or harmaline, as outlined below in Table 22 below.
Fifteen minutes after the tremor assessment, the rats were subjected to an open field test. FIG. 8 is a bar graph showing the traveling distance in 0-5 minutes (mm) measured in rats that were administered 30 mg/kg harmaline and also administered 10 mg/kg propranolol or 1 mg/kg, 3 mg/kg or 10 mg/kg study drug.

[4] = test system: rat spontaneous locomotor activity (sLMA); assay: Rat spontaneous locomotor activity (sLMA) assay; assay type: in vivo; details: rats, 0-30 min; compound of Formula (I) 1 mg/kg p.o., propranolol 1 or 3 mg/kg i.p., alone or in combination
Description: […] Rat sLMA was measured from 0-30 min (0 minutes is 60 minutes after administration of the compound of Formula (I) and 20 minutes after administration of propranolol).

[5] = test system: harmaline-induced hypolocomotion in male SD rats; assay: Co-dosing with propranolol in rat harmaline-induced hypolocomotion (open field, 30 min); assay type: in vivo; details: harmaline 30 mg/kg, 3 mg/kg study drug alone (without propranolol), identical study
Description: Two harmaline model studies using sLMA as one ADL-like end point were carried out. In each of two sLMA studies, male SD rats were grouped into five groups according to the following table. In the first study, Groups 3, 4, and 5 received 3 mg/kg of propranolol and the compound of Formula (I) (the study drug) at the doses of 1 mg/kg or 3 mg/kg. In the second study, Groups 3, 4, and 5, received 10 mg/kg of propranolol and the study drug at the doses of 1 mg/kg or 3 mg/kg.
Rats were then subjected to an open field test for 30 minutes. Total distance travelled was measured.

[6] = test system: harmaline-induced motor impairment in male SD rats; assay: Wire grip test with harmaline in SD rats; assay type: in vivo, rat; details: harmaline 30 mg/kg, dose of 1, 3 and 10 mg/kg
From the text: as §2
Fifteen minutes after the rotarod test, rats were subjected to a wire grip test using an 80 cm long and 7 mm in diameter wire placed at a height of 50 cm.

[7] = Part B OLT (FAS), Day 7, n = 13
[8] = Part B OLT (FAS), Day 21, n = 12
[9] = Part B OLT (FAS), Day 42, n = 11
[10] = Part B RWD (RWAS), Day 56, Study drug, n = 6
[11] = Part B RWD (RWAS), Day 70, Study drug, n = 5
[12] = listed as compound of Formula (I)

SMILES: CC(C)(C)NC(=O)CN1CCC(CNC(=O)c2cc(F)cc(Cl)c2)CC1.Cl [Study drug]
- BAI Score Mild (8-15) [1, 7]: 3 n (%)
- BAI Score Minimal (0-7) [1, 7]: 7 n (%)
- BAI Score Moderate (16-25) [1, 7]: 3 n (%)
- BAI Score Severe (26-63) [1, 7]: 0 n (%)
- BAI Score Mild (8-15) [1, 8]: 1 n (%)
- BAI Score Minimal (0-7) [1, 8]: 9 n (%)
- BAI Score Moderate (16-25) [1, 8]: 2 n (%)
- BAI Score Severe (26-63) [1, 8]: 0 n (%)
- BAI Score Mild (8-15) [1, 9]: 1 n (%)
- BAI Score Minimal (0-7) [1, 9]: 9 n (%)
- BAI Score Moderate (16-25) [1, 9]: 1 n (%)
- BAI Score Severe (26-63) [1, 9]: 0 n (%)
- BAI Score Mild (8-15) [1, 10]: 2 n (%)
- BAI Score Minimal (0-7) [1, 10]: 4 n (%)
- BAI Score Moderate (16-25) [1, 10]: 0 n (%)
- BAI Score Severe (26-63) [1, 10]: 0 n (%)
- BAI Score Mild (8-15) [1, 11]: 0 n (%)
- BAI Score Minimal (0-7) [1, 11]: 4 n (%)
- BAI Score Moderate (16-25) [1, 11]: 0 n (%)
- BAI Score Severe (26-63) [1, 11]: 1 (20.0) n (%)
- change in BAI scores ([1]; Part B open-label titration phase): shift in BAI scores from mild to minimal anxiety
- Quality of life measured by QUEST [2]: improved
- travelling distance in 0-5 minutes in open field vs vehicle and harmaline only ([3]; listed as Formula (I)): significantly attenuated
- travelling distance in 0-5 minutes in open field vs vehicle and harmaline only [3, 12]: significantly attenuated decrease
- total sLMA (total distance travelled) [4]: do not significantly reduce
- harmaline-induced hypolocomotion (traveling distance in 0-30 minutes) vs harmaline and vehicle [5]: not significantly different
- latency to fall in wire grip test vs vehicle and harmaline only ([6]; listed as Formula (I)): significantly attenuated
- latency to fall in wire grip test vs vehicle and harmaline only [6, 12]: significantly attenuated decrease in fall off latency
